# Results taken from patent publication US11198713B2, “Agents modulating beta-catenin functions and methods thereof” (FOG PHARMACEUTICALS, INC., priority 2017, dated 2021).
# Numbered stars: 1 amine (or outer) side, 2 acyl side, 3 side chain; on linkers, the order of the positions; unused ones are H or OH. Bridge positions count the residues as written; N and C are the ends. Square brackets hold non-standard residues; d marks the D form. Peptide text beside a SMILES is read from it. X12 = CN(CC=[*:3])CCC[C@@](C)(N[*:1])C(=O)[*:2]; X11 = CN(CC=[*:3])C[C@](C)(N[*:1])C(=O)[*:2]; X6 = CN(CC=[*:3])CC[C@](C)(N[*:1])C(=O)[*:2]; X13 = C[C@@](CCCCC=[*:3])(N[*:1])C(=O)[*:2]; X5 = C[C@](CCCCCC=[*:3])(N[*:1])C(=O)[*:2]; X7 = C[C@](CCCCC=[*:3])(N[*:1])C(=O)[*:2]; S5 = C=CCCC[C@](C)(N)C(=O)O
# Target: T1, full-length beta-catenin (Axin site) (Homo sapiens, UniProt P35222)
# T1 construct: 15 nM full-length beta-catenin, 20 nM FITC labeled peptide in buffer
# T1 sequence (P35222 1-781): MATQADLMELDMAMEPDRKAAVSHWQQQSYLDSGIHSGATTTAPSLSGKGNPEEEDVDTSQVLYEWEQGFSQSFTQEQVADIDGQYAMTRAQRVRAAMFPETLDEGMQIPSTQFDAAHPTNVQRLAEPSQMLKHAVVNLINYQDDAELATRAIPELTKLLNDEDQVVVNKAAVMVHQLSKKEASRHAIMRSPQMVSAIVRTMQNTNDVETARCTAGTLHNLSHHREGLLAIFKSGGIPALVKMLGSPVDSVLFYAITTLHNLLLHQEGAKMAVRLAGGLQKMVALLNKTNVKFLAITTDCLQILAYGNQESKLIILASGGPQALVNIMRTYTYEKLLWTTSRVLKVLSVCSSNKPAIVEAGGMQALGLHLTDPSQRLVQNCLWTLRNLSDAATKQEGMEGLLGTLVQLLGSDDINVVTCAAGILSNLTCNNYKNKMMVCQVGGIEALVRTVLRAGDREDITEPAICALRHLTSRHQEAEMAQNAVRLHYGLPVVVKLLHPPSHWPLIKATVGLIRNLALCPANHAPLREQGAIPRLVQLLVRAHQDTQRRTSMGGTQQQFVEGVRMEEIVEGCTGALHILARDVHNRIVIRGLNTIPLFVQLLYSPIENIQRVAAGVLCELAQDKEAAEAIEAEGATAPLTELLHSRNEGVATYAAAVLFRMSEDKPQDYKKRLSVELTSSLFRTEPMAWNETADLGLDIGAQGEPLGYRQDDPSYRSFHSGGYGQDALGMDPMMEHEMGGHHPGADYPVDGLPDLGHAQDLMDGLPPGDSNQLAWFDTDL
# Test: Competition fluorescence polarization assay (Axin site probe)
# Format: binding
# Conditions: competition fluorescence polarization, Table 2; read-out: in vitro FP EC50
# Method in brief: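 Competition FP: 15 nM full-length β-catenin pre-incubated 5 min with 20 nM FITC-labelled stapled Axin-site peptide, then titrated peptide added (3-fold series from 5 μM) for 15 min in the dark. Buffer 50 mM Tris pH 8.0, 250 mM NaCl, 2% glycerol, 0.5 mM EDTA; duplicate reads.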
row,EC50,Compound
1,500 to 5000 nM,"CC[C@H](C)[C@@H]1NC(=O)[C@H](Cc2c[nH]cn2)NC(=O)[C@H](C)NC(=O)[C@H](CC(=O)O)NC(=O)[C@H](CC(C)C)NC(=O)[C@H](C)NC(=O)[C@](C)(NC(=O)[C@H](C)NC(C)=O)CCCCCCC=CCOC(=O)N2CC[C@@](C(=O)N[C@@H](CCCNC(=N)N)C(=O)N[C@H](C(=O)N[C@@H](Cc3c[nH]c4ccccc34)C(N)=O)C(C)C)(C2)NC1=O [FP0405c, Ac-A-R8-A-L-D-A-H-I-MB-R-V-W-NH2]"
2,100 to 500 nM,"CC[C@H](C)[C@@H]1NC(=O)[C@H](Cc2c[nH]cn2)NC(=O)[C@H](C)NC(=O)[C@H](CC(=O)O)NC(=O)[C@H](C)NC(=O)[C@H]([C@@H](C)CC)NC(=O)[C@](C)(NC(=O)[C@H](C)NC(C)=O)CCCCCCC=CCOC(=O)N2CC[C@@](C(=O)N[C@@H](CCCNC(=N)N)C(=O)N[C@H](C(=O)N[C@@H](Cc3c[nH]c4ccccc34)C(N)=O)C(C)C)(C2)NC1=O [FP0406c, Ac-A-R8-I-A-D-A-H-I-MB-R-V-W-NH2]"
3,500 to 5000 nM,"CC[C@H](C)[C@@H]1NC(=O)[C@H](Cc2c[nH]cn2)NC(=O)[C@H](C)NC(=O)[C@H](C)NC(=O)[C@H](CC(C)C)NC(=O)[C@H]([C@@H](C)CC)NC(=O)[C@](C)(NC(=O)[C@H](C)NC(C)=O)CCCCCCC=CCOC(=O)N2CC[C@@](C(=O)N[C@@H](CCCNC(=N)N)C(=O)N[C@H](C(=O)N[C@@H](Cc3c[nH]c4ccccc34)C(N)=O)C(C)C)(C2)NC1=O [FP0407c, Ac-A-R8-I-L-A-A-H-I-MB-R-V-W-NH2]"
4,> 5000 nM,"CC[C@H](C)[C@@H]1NC(=O)[C@H](C)NC(=O)[C@H](C)NC(=O)[C@H](CC(=O)O)NC(=O)[C@H](CC(C)C)NC(=O)[C@H]([C@@H](C)CC)NC(=O)[C@](C)(NC(=O)[C@H](C)NC(C)=O)CCCCCCC=CCOC(=O)N2CC[C@@](C(=O)N[C@@H](CCCNC(=N)N)C(=O)N[C@H](C(=O)N[C@@H](Cc3c[nH]c4ccccc34)C(N)=O)C(C)C)(C2)NC1=O [FP0408c, Ac-A-R8-I-L-D-A-A-I-MB-R-V-W-NH2]"
5,> 5000 nM,"CC[C@H](C)[C@@H]1NC(=O)[C@](C)(NC(=O)[C@H](C)NC(C)=O)CCCCCCC=CCOC(=O)N2CC[C@@](C(=O)N[C@@H](CCCNC(=N)N)C(=O)N[C@H](C(=O)N[C@@H](Cc3c[nH]c4ccccc34)C(N)=O)C(C)C)(C2)NC(=O)[C@H](C)NC(=O)[C@H](Cc2c[nH]cn2)NC(=O)[C@H](C)NC(=O)[C@H](CC(=O)O)NC(=O)[C@H](CC(C)C)NC1=O [FP0409c, Ac-A-R8-I-L-D-A-H-A-MB-R-V-W-NH2]"
6,100 to 500 nM,"CC[C@H](C)[C@@H]1NC(=O)[C@H](Cc2c[nH]cn2)NC(=O)[C@H](C)NC(=O)[C@H](CC(=O)O)NC(=O)[C@H](CC(C)C)NC(=O)[C@H]([C@@H](C)CC)NC(=O)[C@](C)(NC(=O)[C@H](C)NC(C)=O)CCCCCCC=CCOC(=O)N2CC[C@@](C(=O)N[C@@H](C)C(=O)N[C@H](C(=O)N[C@@H](Cc3c[nH]c4ccccc34)C(N)=O)C(C)C)(C2)NC1=O [FP0410c, Ac-A-R8-I-L-D-A-H-I-MB-A-V-W-NH2]"
7,500 to 5000 nM,"CC[C@H](C)[C@@H]1NC(=O)[C@H](Cc2c[nH]cn2)NC(=O)[C@H](C)NC(=O)[C@H](CC(=O)O)NC(=O)[C@H](CC(C)C)NC(=O)[C@H]([C@@H](C)CC)NC(=O)[C@](C)(NC(=O)[C@H](C)NC(C)=O)CCCCCC=CCN(C)C[C@@](C)(C(=O)N[C@@H](CCCNC(=N)N)C(=O)N[C@H](C(=O)N[C@@H](Cc2c[nH]c3ccccc23)C(N)=O)C(C)C)NC1=O [FP0495a, Ac-A-R7-I-L-D-A-H-I-MD-R-V-W-NH2] (Ac-A[X5]ILDAHI[X11]RVW-NH2; staple 2-9)"
8,100 to 500 nM,"CC[C@H](C)[C@@H]1NC(=O)[C@H](Cc2c[nH]cn2)NC(=O)[C@H](C)NC(=O)[C@H](CC(=O)O)NC(=O)[C@H](CC(C)C)NC(=O)[C@H]([C@@H](C)CC)NC(=O)[C@](C)(NC(=O)[C@H](C)NC(C)=O)CCCCCC=CCOC(=O)N(C)C[C@@](C)(C(=O)N[C@@H](CCCNC(=N)N)C(=O)N[C@H](C(=O)N[C@@H](Cc2c[nH]c3ccccc23)C(N)=O)C(C)C)NC1=O [FP0495c, Ac-A-R7-I-L-D-A-H-I-MD-R-V-W-NH2]"
9,100 to 500 nM,"CC[C@H](C)[C@@H]1NC(=O)[C@H](Cc2c[nH]cn2)NC(=O)[C@H](C)NC(=O)[C@H](CC(=O)O)NC(=O)[C@H](CC(C)C)NC(=O)[C@H]([C@@H](C)CC)NC(=O)[C@](C)(NC(=O)[C@H](C)NC(C)=O)CCCC=CCOC(=O)N(C)CC[C@@](C)(C(=O)N[C@@H](CCCNC(=N)N)C(=O)N[C@H](C(=O)N[C@@H](Cc2c[nH]c3ccccc23)C(N)=O)C(C)C)NC1=O [FP0501c, Ac-A-R5-I-L-D-A-H-I-MF-R-V-W-NH2]"
10,500 to 5000 nM,"CC[C@H](C)[C@@H]1NC(=O)[C@H](Cc2c[nH]cn2)NC(=O)[C@H](C)NC(=O)[C@H](CC(=O)O)NC(=O)[C@H](CC(C)C)NC(=O)[C@H]([C@@H](C)CC)NC(=O)[C@](C)(NC(=O)[C@H](C)NC(C)=O)CCCCC=CCN(C)CC[C@@](C)(C(=O)N[C@@H](CCCNC(=N)N)C(=O)N[C@H](C(=O)N[C@@H](Cc2c[nH]c3ccccc23)C(N)=O)C(C)C)NC1=O [FP0502a, Ac-A-R6-I-L-D-A-H-I-MF-R-V-W-NH2] (Ac-A[X7]ILDAHI[X6]RVW-NH2; staple 2-9)"
11,500 to 5000 nM,"CC[C@H](C)[C@@H]1NC(=O)[C@H](Cc2c[nH]cn2)NC(=O)[C@H](C)NC(=O)[C@H](CC(=O)O)NC(=O)[C@H](CC(C)C)NC(=O)[C@H]([C@@H](C)CC)NC(=O)[C@](C)(NC(=O)[C@H](C)NC(C)=O)CCCN(C)CC=CCCC[C@@](C)(C(=O)N[C@@H](CCCNC(=N)N)C(=O)N[C@H](C(=O)N[C@@H](Cc2c[nH]c3ccccc23)C(N)=O)C(C)C)NC1=O [FP0506a, Ac-A-MI-I-L-D-A-H-I-S5-R-V-W-NH2] (Ac-A[X12]ILDAHI[S5]RVW-NH2; staple 2-9)"
12,< 100 nM,"CC[C@H](C)[C@@H]1NC(=O)[C@H](Cc2c[nH]cn2)NC(=O)[C@H](C)NC(=O)[C@H](CC(=O)O)NC(=O)[C@H](CC(C)C)NC(=O)[C@H]([C@@H](C)CC)NC(=O)[C@](C)(NC(=O)[C@H](C)NC(C)=O)CCCN(C)CC=CCCCC[C@@](C)(C(=O)N[C@@H](CCCNC(=N)N)C(=O)N[C@H](C(=O)N[C@@H](Cc2c[nH]c3ccccc23)C(N)=O)C(C)C)NC1=O [FP0507a, Ac-A-MI-I-L-D-A-H-I-S6-R-V-W-NH2] (Ac-A[X12]ILDAHI[X13]RVW-NH2; staple 2-9)"
13,500 to 5000 nM,"CC[C@H](C)[C@@H]1NC(=O)[C@H](Cc2c[nH]cn2)NC(=O)[C@H](C)NC(=O)[C@H](CC(=O)O)NC(=O)[C@H](CC(C)C)NC(=O)[C@H]([C@@H](C)CC)NC(=O)[C@](C)(NC(=O)[C@H](C)NC(C)=O)CCCN(C)C(=O)OCC=CCCCC[C@@](C)(C(=O)N[C@@H](CCCNC(=N)N)C(=O)N[C@H](C(=O)N[C@@H](Cc2c[nH]c3ccccc23)C(N)=O)C(C)C)NC1=O [FP0507c, Ac-A-MI-I-L-D-A-H-I-S6-R-V-W-NH2]"
14,100 to 500 nM,"CC[C@H](C)[C@@H]1NC(=O)[C@H](Cc2c[nH]cn2)NC(=O)[C@H](C)NC(=O)[C@H](CC(=O)O)NC(=O)[C@H](CC(C)C)NC(=O)[C@H]([C@@H](C)CC)NC(=O)[C@](C)(NC(=O)[C@H](C)NC(C)=O)CCCCCC=CCOC(=O)N2CC(C(=O)N[C@@H](CCCNC(=N)N)C(=O)N[C@H](C(=O)N[C@@H](Cc3c[nH]c4ccccc34)C(N)=O)C(C)C)(C2)NC1=O [FP0516c, Ac-A-R7-I-L-D-A-H-I-MA-R-V-W-NH2]"
